How the values were obtained:
Format in all cases: in vivo
[1] = system: Polygonum convolvulus (POLCO); experiment: Post-emergence herbicidal action, greenhouse pot trial; conditions: visual rating after about 3 weeks; for pest or weed control at 80 g/ha / pest or weed control at 320 g/ha: Fallopia convolvulus, 504 h; for pest or weed control at 80 g/ha: read-out: Post-emergence effect at 80 g/ha against POLCO in %; for pest or weed control at 320 g/ha: read-out: Post-emergence effect at 320 g/ha against POLCO in %
Outline: (§1)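 Visual % activity versus untreated controls (100% = plants died, 0% = like control), scored about 3 weeks post-spray. Plants grown in sandy loam pots under greenhouse conditions were treated at the one-leaf stage with WP or EC formulations at 320 g/ha or lower.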

Setaria viridis (SETVI) = experiment: as above; conditions: visual rating after about 3 weeks; for pest or weed control at 320 g/ha: Setaria viridis, 504 h, read-out: Post-emergence effect at 320 g/ha against SETVI in %
Outline: as §1

Veronica persica (VERPE) = experiment: as above; conditions: visual rating after about 3 weeks; for pest or weed control at 320 g/ha: Veronica persica, 504 h, read-out: Post-emergence effect at 320 g/ha against VERPE in %
Outline: as §1

[2] = system: Amaranthus retroflexus (AMARE); experiment: as above; conditions: visual rating after about 3 weeks; for pest or weed control at 80 g/ha / pest or weed control at 320 g/ha: Amaranthus retroflexus, 504 h; for pest or weed control at 80 g/ha: read-out: Post-emergence effect at 80 g/ha against AMARE in %; for pest or weed control at 320 g/ha: read-out: Post-emergence effect at 320 g/ha against AMARE in %
Outline: as §1

Viola tricolor (VIOTR) = experiment: as above; conditions: Viola tricolor, 504 h, read-out: Post-emergence effect against VIOTR
Outline: as §1

[3] = system: Echinochloa crus-galli (ECHCG); experiment: as above; conditions: 320 g/ha, visual rating after about 3 weeks; for pest or weed control at 320 g/ha: Echinochloa crus-galli, 504 h, read-out: Post-emergence effect at 320 g/ha against ECHCG in %
Outline: as §1

[4] = system: Pharbitis purpurea (PHBPU); experiment: as above; conditions: Ipomoea purpurea, 504 h, visual rating after about 3 weeks; for pest or weed control at 320 g/ha: read-out: Post-emergence effect at 320 g/ha against PHBPU in %
Outline: as §1

[5] = system: Matricaria inodora (MATIN); experiment: as above; conditions: visual rating after about 3 weeks; for pest or weed control at 320 g/ha / pest or weed control at 80 g/ha: Tripleurospermum inodorum, 504 h; for pest or weed control at 320 g/ha: read-out: Post-emergence effect at 320 g/ha against MATIN in %; for pest or weed control at 80 g/ha: read-out: Post-emergence effect at 80 g/ha against MATIN in %
Outline: as §1

[6] = system: Abutilon theophrasti (ABUTH); experiment: as above; conditions: visual rating after about 3 weeks; for pest or weed control at 320 g/ha: read-out: Post-emergence effect at 320 g/ha against ABUTH in %
Outline: as §1

[7] = system: Digitaria sanguinalis (DIGSA); experiment: as above; conditions: visual rating after about 3 weeks; for pest or weed control at 320 g/ha: Digitaria sanguinalis, 504 h, read-out: Post-emergence effect at 320 g/ha against DIGSA in %
Outline: as §1

[8] = system: Triticum aestivum (TRZAS); experiment: Post-emergence crop plant compatibility, greenhouse pot trial; conditions: for Post-emergence effect at 320 g/ha against TRZAS in %: in vivo
Method: Seeds of monocotyledonous and dicotyledonous weeds and crop plants are placed in sandy loam in plastic or organic planting pots, covered with soil and cultivated in a greenhouse under controlled growth conditions. 2 to 3 weeks after sowing, the trial plants are treated at the one-leaf stage. The compounds of the invention, formulated in the form of wettable powders (WP) or as emulsion concentrates (EC), are then sprayed onto the green parts of the plants as aqueous suspension or emulsion with addition of 0.5% additive at a water application rate equivalent to 600 l/ha. After about 3 weeks of keeping the trial plants in the greenhouse under optimum growth conditions, the effect of the preparations is rated visually in comparison to untreated controls. For example, 100% activity=the plants have died, 0% activity=like control plants.
The observed effects on selected crop plants are reported here in comparison to the untreated controls (values in %). The appendices “a”, “b” and “c” give differentiation by dosage used with otherwise the same useful plants tested.
As shown by results from Tables B1 to B19, inventive compounds of the general formula (I) in the case of post-emergence treatment have good herbicidal efficacy against harmful plants, for example Abutilon theophrasti (ABUTH), Alopecurus myosuroides (ALOMY), Amaranthus retroflexus (AMARE), Avena fatua (AVEFA), Digitaria sanguinalis (DIGSA), Echinochloa crus-galli (ECHCG), Bassia scoparia (KCHSC), Lolium rigidum (LOLRI), Matricaria inodora (MATIN), Pharbitis purpurea (PHBPU), Polygonum convolvulus (POLCO), Setaria viridis (SETVI), Veronica persica (VERPE) and Viola tricolor (VIOTR) at an application rate of 320 g of active substance or less per hectare, and good crop plant compatibility in the case of organisms such as Oryza sativa (ORYSA), Zea mays (ZEAMX), Brassica napus (BRSNW), Glycine max (GLXMA) and Triticum aestivum (TRZAS) at an application rate of 320 g or less per hectare.

Lolium rigidum (LOLRI) = experiment: Post-emergence herbicidal action, greenhouse pot trial; conditions: 320 g/ha, visual rating after about 3 weeks
Outline: as §1

[9] = system: Alopecurus myosuroides (ALOMY); experiment: as above; conditions: 320 g/ha, visual rating after about 3 weeks
Outline: as §1

Avena fatua (AVEFA) = experiment: as above; conditions: 320 g/ha, visual rating after about 3 weeks
Outline: as §1

Bassia scoparia (KCHSC) = experiment: as above
Outline: as §1

[10] = Abutilon theophrasti, 504 h, 320 g/ha

Row | Structure (SMILES) | pest or weed control at 320 g/ha ([1]; 320 g/ha) | pest or weed control at 320 g/ha (Setaria viridis (SETVI); 320 g/ha) | pest or weed control at 320 g/ha (Veronica persica (VERPE)) | pest or weed control at 80 g/ha ([2]; 80 g/ha) | pest or weed control at 320 g/ha ([2]; 320 g/ha) | pest or weed control at 20 g/ha (Viola tricolor (VIOTR)) | pest or weed control at 80 g/ha (Viola tricolor (VIOTR)) | pest or weed control at 320 g/ha (Viola tricolor (VIOTR)) | pest or weed control at 320 g/ha [3] | pest or weed control at 320 g/ha [4] | pest or weed control at 320 g/ha ([5]; 320 g/ha) | pest or weed control at 320 g/ha [6, 10] | pest or weed control at 320 g/ha ([7]; 320 g/ha) | Post-emergence effect at 320 g/ha against TRZAS in % [8] | also measured
1 | COC(=O)C(Oc1nn(-c2cc(F)ccc2F)c(-c2cncc(F)c2)c1C1CC1)SC (stereo not shown) [Example I-08] | 90% | 90% | 90% | 80% | 80% | 90% | 90% | 90% | 80% | 90% | 80% | – | – | – | pest or weed control at 80 g/ha ([1]; 80 g/ha): 90%; Post-emergence effect at 80 g/ha against VERPE in % (Veronica persica (VERPE); 80 g/ha): 80%; pest or weed control at 80 g/ha ([4]; 80 g/ha, read-out: Post-emergence effect at 80 g/ha against PHBPU in %): 80%
2 | CCOC(=O)C(Oc1nn(-c2cc(F)ccc2F)c(-c2cncc(F)c2)c1Br)SC (stereo not shown) [Example I-03, ethyl {[4-bromo-1-(2,5-difluorophenyl)-5-(5-fluoropyridin-3-yl)-1H-pyrazol-3-yl]oxy}(methylsulfanyl)acetate] | – | 90% | – | – | – | 80% | 90% | 90% | 90% | 80% | 90% | 80% | 80% | 20% | Post-emergence effect at 80 g/ha against SETVI in % (Setaria viridis (SETVI); 80 g/ha): 80%; pest or weed control at 80 g/ha ([5]; 80 g/ha): 80%
3 | CCOC(=O)C(Oc1nn(-c2ccccc2F)c(-c2ccc(F)nc2)c1C(F)(F)F)SC (stereo not shown) [Example I-46] | 80% | 80% | 80% | 80% | 80% | 80% | 80% | 90% | 90% | – | 90% | 80% | 80% | – | pest or weed control at 80 g/ha ([6]; Abutilon theophrasti, 504 h, 80 g/ha, read-out: Post-emergence effect at 80 g/ha against ABUTH in %): 80%; pest or weed control at 320 g/ha (Lolium rigidum (LOLRI); Lolium rigidum, 504 h, read-out: Post-emergence effect at 320 g/ha against LOLRI in %): 100%
4 | CSC(Oc1nn(-c2cc(F)ccc2F)c(-c2cncc(F)c2)c1Br)C(=O)O (stereo not shown) [Example I-06] | – | – | – | – | – | – | 80% | 90% | 90% | 80% | 90% | – | 80% | 20% | –
5 | COC(=O)CCOC(=O)C(Oc1nn(-c2ncccc2F)c(-c2ccc(F)nc2)c1Br)SC (racemic) [Example I-32] | – | – | – | – | – | – | – | – | – | – | – | – | – | – | Post-emergence effect at 80 g/ha against ABUTH in % ([6]; 80 g/ha): 80%; Post-emergence effect at 320 g/ha against ABUTH in % ([6]; 320 g/ha): 90%; Post-emergence effect at 80 g/ha against POLCO in % ([1]; 80 g/ha): 80%; Post-emergence effect at 320 g/ha against POLCO in % ([1]; 320 g/ha): 90%; Post-emergence effect at 80 g/ha against DIGSA in % ([7]; 80 g/ha): 90%; Post-emergence effect at 320 g/ha against DIGSA in % ([7]; 320 g/ha): 90%; Post-emergence effect at 320 g/ha against ALOMY in % [9]: 90%; Post-emergence effect at 320 g/ha against SETVI in % (Setaria viridis (SETVI); 320 g/ha): 80%; Post-emergence effect at 320 g/ha against LOLRI in % (Lolium rigidum (LOLRI)): 80%; Post-emergence effect at 320 g/ha against AVEFA in % (Avena fatua (AVEFA)): 90%; Post-emergence effect at 80 g/ha against AMARE in % ([2]; 80 g/ha): 80%; Post-emergence effect at 320 g/ha against AMARE in % ([2]; 320 g/ha): 80%; Post-emergence effect against KCHSC (Bassia scoparia (KCHSC); 80 g/ha): 80%; Post-emergence effect against KCHSC (Bassia scoparia (KCHSC); 320 g/ha): 90%; Post-emergence effect at 320 g/ha against ECHCG in % [3]: 90%; Post-emergence effect at 80 g/ha against MATIN in % ([5]; 80 g/ha): 80%; Post-emergence effect at 320 g/ha against MATIN in % ([5]; 320 g/ha): 80%; Post-emergence effect against TRZAS (crop plant compatibility) ([8]; 20 g/ha, post-emergence, in comparison to untreated controls): 0%
6 | CSC(Oc1nn(-c2ncccc2F)c(-c2cncc(F)c2)c1C1CC1)C(=O)O (stereo not shown) [Example I-44] | 80% | 80% | 90% | 90% | 90% | 90% | 90% | 90% | 90% | – | 90% | 90% | – | – | pest or weed control at 320 g/ha (Avena fatua (AVEFA); Avena fatua, 504 h, read-out: Post-emergence effect at 320 g/ha against AVEFA in %): 90%; Post-emergence effect at 20 g/ha against AMARE in % ([2]; 20 g/ha): 80%; pest or weed control at 320 g/ha (Bassia scoparia (KCHSC); Bassia scoparia, 504 h, 320 g/ha, read-out: Post-emergence effect against KCHSC): 90%; pest or weed control at 80 g/ha ([5]; 80 g/ha): 80%
7 | CCOC(=O)C(Oc1nn(-c2ncccc2F)c(-c2ccccc2)c1Br)SC (stereo not shown) [Example I-11] | 80% | – | – | 80% | 90% | – | – | – | 80% | – | 80% | 80% | – | 0% | pest or weed control at 80 g/ha ([1]; 80 g/ha): 80%

Source: US20250026724A1, “(1,4,5-TRISUBSTITUTED 1H-PYRAZOL-3-YL)OXY-2-ALKYLTHIOALKYL ACIDS AND -ALKYL ACID DERIVATIVES, SALTS THEREOF AND USE THEREOF AS ACTIVE HERBICIDAL INGREDIENTS” (BAYER AKTIENGESELLSCHAFT, priority 2021, published 2025)
